Measured values from US4504580A, “Antibiotics produced by fermentation of a novel strain of Streptomyces hygroscopicus” (Bristol-Myers Company, priority 1983, dated 1985).
In brackets after ≈: the same amount, converted by molar mass. Read-outs that look alike come from different tables or passages of the source.

Key:
Assay type in all cases: cell-based
[1] = test system: Pseudomonas aeruginosa A9930; test: MIC by serial two-fold agar dilution, P. aeruginosa A9930; conditions: Pseudomonas aeruginosa, A9930
Procedure: (§1) The minimum inhibitory concentrations (MIC) of Bu-2659A, B, C, D and E were determined for a variety of gram-positive and gram-negative bacteria by the serial two-fold agar dilution method using the Steer's multi-inoculating apparatus. The inoculum was standardized as a 10^4 dilution of an overnight culture of the test organisms in Heart Infusion Broth (Difco). […] Reference antibiotics utilized in these tests included commercially available neomycin as well as its components, neomycins B and C [as used herein, the term "neomycin" means the commercial product containing neomycins B and C at an approximate ratio of 7:3], paromomycin [the commercial product containing >90% of paromomycin I and <10% of paromomycin II] and ribostamycin.

Micrococcus flavus D12 = test: MIC by serial two-fold agar dilution, M. flavus D12; conditions: Micrococcus flavus, D12
Procedure: as §1

[2] = test system: Klebsiella pneumoniae D11; test: MIC by serial two-fold agar dilution, K. pneumoniae D11; conditions: Klebsiella pneumoniae, D11
Procedure: as §1

[3] = test system: Pseudomonas aeruginosa A20896; test: MIC, aminoglycoside-resistant P. aeruginosa A20896; conditions: Pseudomonas aeruginosa, A20896
Procedure: as §1

Proteus morganii A9553 = test: MIC by serial two-fold agar dilution, P. morganii A9553; conditions: Morganella morganii, A9553
Procedure: as §1

[4] = test system: Staphylococcus aureus D136; test: MIC by serial two-fold agar dilution, S. aureus D136; conditions: Staphylococcus aureus, D136
Procedure: as §1

[5] = test system: Staphylococcus aureus A20239; test: MIC, aminoglycoside-resistant S. aureus A20239; conditions: Staphylococcus aureus, A20239
Procedure: as §1

Proteus vulgaris A9436 = test: MIC by serial two-fold agar dilution, P. vulgaris A9436; conditions: Proteus vulgaris, A9436
Procedure: as §1

[6] = test system: Enterobacter cloacae A20364; test: MIC, aminoglycoside-resistant E. cloacae A20364; conditions: Enterobacter cloacae, A20364
Procedure: as §1

Escherichia coli JR88 = test: MIC, aminoglycoside-resistant E. coli JR88; conditions: Escherichia coli, JR88
Procedure: as §1

[7] = test system: Staphylococcus aureus Smith; test: MIC by serial two-fold agar dilution, S. aureus Smith; conditions: Staphylococcus aureus
Procedure: as §1

[8] = test system: Serratia marcescens A20019; test: MIC by serial two-fold agar dilution, S. marcescens A20019; conditions: Serratia marcescens, A20019
Procedure: as §1

[9] = test system: Micrococcus luteus PCI 1001; test: MIC by serial two-fold agar dilution, M. luteus PCI 1001; conditions: Micrococcus luteus, PCI1001
Procedure: as §1

[10] = test system: Pseudomonas aeruginosa D15; test: MIC by serial two-fold agar dilution, P. aeruginosa D15; conditions: Pseudomonas aeruginosa, D15
Procedure: as §1

[11] = test system: Staphylococcus aureus 209P; test: MIC by serial two-fold agar dilution, S. aureus 209P; conditions: Staphylococcus aureus, 209P
Procedure: as §1

Escherichia coli Juhl = test: MIC by serial two-fold agar dilution, E. coli Juhl; conditions: Escherichia coli
Procedure: as §1

Proteus mirabilis A9906 = test: MIC by serial two-fold agar dilution, P. mirabilis A9906; conditions: Proteus mirabilis, A9906
Procedure: as §1

Escherichia coli A20107 = test: MIC, aminoglycoside-resistant E. coli A20107; conditions: Escherichia coli, A20107; Table 9; inactivating enzyme APH(3')-II; Mueller-Hinton agar; read-out: MIC
Procedure: as §1

[12] = test system: Bacillus brevis IFO 12334; test: MIC, aminoglycoside-resistant B. brevis IFO 12334; conditions: Brevibacillus brevis, IFO12334
Procedure: as §1

[13] = test system: Bacillus subtilis PCI 219; test: MIC by serial two-fold agar dilution, B. subtilis PCI 219; conditions: Bacillus subtilis, PCI219
Procedure: as §1

[14] = test system: Escherichia coli NR79/W677; test: MIC, aminoglycoside-resistant E. coli NR79/W677; conditions: Escherichia coli, NR79/W677
Procedure: as §1

Proteus mirabilis A9554 = test: MIC by serial two-fold agar dilution, P. mirabilis A9554; conditions: Proteus mirabilis, A9554
Procedure: as §1

Escherichia coli A20732 = test: MIC, aminoglycoside-resistant E. coli A20732; conditions: Escherichia coli, A20732; Table 9; inactivating enzyme ANT(2"); Mueller-Hinton agar; read-out: MIC
Procedure: as §1

Proteus rettgeri A15167 = test: MIC by serial two-fold agar dilution, P. rettgeri A15167; conditions: Providencia rettgeri, A15167
Procedure: as §1

[15] = test system: Escherichia coli JR35/C600; test: MIC, aminoglycoside-resistant E. coli JR35/C600; conditions: Escherichia coli, JR35/C600
Procedure: as §1

[16] = test system: Pseudomonas aeruginosa A20601; test: MIC, aminoglycoside-resistant P. aeruginosa A20601; conditions: Pseudomonas aeruginosa, A20601
Procedure: as §1

Escherichia coli ML 1630 = test: MIC, aminoglycoside-resistant E. coli ML 1630; conditions: Escherichia coli, ML1630; Table 9; inactivating enzyme APH(3')-I; Mueller-Hinton agar; read-out: MIC
Procedure: as §1

Escherichia coli NIHJ = test: MIC by serial two-fold agar dilution, E. coli NIHJ; conditions: Escherichia coli, Mueller-Hinton agar, read-out: MIC
Procedure: as §1

[17] = test system: Escherichia coli JR66/W677; test: MIC, aminoglycoside-resistant E. coli JR66/W677; conditions: Escherichia coli, JR66/W677
Procedure: as §1

bacteria of Table 10 = test: In vitro activity of Bu-2659 DP-I vs neamine, overall, Table 10
Procedure: as §1
The in vitro activity of Bu-2659 DP-I (1-deamino-1-hydroxyneamine) is shown in Table 10 along with that of neamine.

[18] = Table 10, Mueller-Hinton agar, read-out: MIC

## NC[C@@H]1O[C@H](O[C@H]2[C@@H](O)[C@H](O[C@@H]3[C@@H](O)[C@H](N)C[C@H](N)[C@H]3O[C@H]3O[C@H](CO)[C@@H](O)[C@H](O)[C@H]3N)O[C@@H]2CO)[C@H](N)[C@@H](O)[C@@H]1O [Paromomycin, paromomycin]
[1]
  MIC: 12.5 µg/mL (≈ 20.3 µM)
Micrococcus flavus D12
  MIC: 12.5 µg/mL (≈ 20.3 µM)
[2]
  MIC: 0.4 µg/mL (≈ 0.65 µM)
[3]
  MIC: > 100 µg/mL
Proteus morganii A9553
  MIC: 1.6 µg/mL (≈ 2.6 µM)
[4]
  MIC: 0.8 µg/mL (≈ 1.3 µM)
[5]
  MIC: > 100 µg/mL
Proteus vulgaris A9436
  MIC: 0.8 µg/mL (≈ 1.3 µM)
[6]
  MIC: > 100 µg/mL
Escherichia coli JR88
  MIC: 1.6 µg/mL (≈ 2.6 µM)
[7]
  MIC: 1.6 µg/mL (≈ 2.6 µM)
[8]
  MIC: 1.6 µg/mL (≈ 2.6 µM)
[9]
  MIC: 6.3 µg/mL (≈ 10.2 µM)
[10]
  MIC: 50 µg/mL (≈ 81.2 µM)
[11]
  MIC: 0.8 µg/mL (≈ 1.3 µM)
Escherichia coli Juhl
  MIC: 12.5 µg/mL (≈ 20.3 µM)
Proteus mirabilis A9906
  MIC: 0.8 µg/mL (≈ 1.3 µM)
Escherichia coli A20107
  MIC: > 100 µg/mL
[12]
  MIC: > 100 µg/mL
[13]
  MIC: 0.2 µg/mL (≈ 0.325 µM)
[14]
  MIC: > 100 µg/mL
Proteus mirabilis A9554
  MIC: 0.8 µg/mL (≈ 1.3 µM)
Escherichia coli A20732
  MIC: 1.6 µg/mL (≈ 2.6 µM)
Proteus rettgeri A15167
  MIC: 1.6 µg/mL (≈ 2.6 µM)
[15]
  MIC: > 100 µg/mL
[16]
  MIC: > 100 µg/mL
Escherichia coli ML 1630
  MIC: > 100 µg/mL
Escherichia coli NIHJ; Table 7
  MIC: 3.1 µg/mL (≈ 5.04 µM)
[17]
  MIC: > 100 µg/mL

## NC[C@H]1O[C@H](O[C@H]2[C@H](O)[C@@H](O)[C@H](O)C[C@@H]2N)[C@H](N)[C@@H](O)[C@@H]1O [Bu-2659 DP-I, 1-deamino-1-hydroxyneamine]
[1]; [18]
  MIC: > 800 µg/mL
[2]; [18]
  MIC: 200 µg/mL (≈ 619 µM)
Proteus vulgaris A9436; [18]
  MIC: 200 µg/mL (≈ 619 µM)
Escherichia coli JR88
  MIC: 200 µg/mL (≈ 619 µM)
[7]; [18]
  MIC: 200 µg/mL (≈ 619 µM)
[11]; [18]
  MIC: 200 µg/mL (≈ 619 µM)
[13]; [18]
  MIC: 100 µg/mL (≈ 309 µM)
Proteus mirabilis A9554; [18]
  MIC: 800 µg/mL (≈ 2470 µM)
Bacteria of Table 10
  in vitro activity compared with neamine, in words: much less active than neamine
Escherichia coli NIHJ; Table 10
  MIC: 200 µg/mL (≈ 619 µM)
